This is an account of results in US20240226285A9, “IMMUNOSTIMULATORY COMPOSITIONS” (Bayer Animal Health GmbH, priority 2020, published 2024).

Data set [1] relates to NF-κB pathway. Briefly: NF-κB dependent pathway readout (SEAP, pNPP assay) in J774-Dual reporter cell line. Type of data set: cell-based, murine. Conditions: for activation of the NF-κB pathway (SEAP levels) compared to untreated J774-DUAL / activation of the NF-κB pathway (increase of SEAP levels in supernatant, normalized to protein content): J774-DUAL cells, 48 h; for activation of the NF-κB pathway (increase of SEAP levels in supernatant, normalized to protein content): FIG. 1, class C ODN, oligonucleotide-liposome complexes, 1.85 μg/mL oligonucleotide. Here is the method: (§1) J774-DUAL™ cells (InvivoGen, murine NF-kB & IRF Reporter macrophage-like cells) were grown in Dulbecco's minimum essential medium (DMEM) with high D-glucose content, 1 mM sodium pyruvate and 4 mM stable glutamine. DMEM was supplemented with 10% FBS, 50 μg/mL streptomycin, 50 U/mL penicillin G and 100 μg/mL Normocin™. Every other week, the culture medium was additionally supplemented with 200 μg/mL Zeocin™ and 20 μg/mL Blasticidin.
(§2) For experimental series, serum free DMEM without phenol red was prepared containing 1 mM sodium pyruvate, 4 mM L-glutamine, 50 μg/mL streptomycin, 50 U/mL penicillin G, 100 μg/mL Normocin™, 200 μg/mL Zeocin™ and 20 μg/mL Blasticidin. J774-DUAL™ cell line was split once per week with a splitting ratio of 1:4.
J774-DUAL™ cells were cultivated in a Heracell™ 150 incubator (Thermo Scientific) at 37° C. with 5% C02 and 95% humidified air. For seeding, cells were counted using a Neubauer bright line hemocytometer (Marienfeld) with a volume 0.1 mm^3. Cell lines were regularly checked for absence of mycoplasmic contamination.
J774-Dual™ is a reporter cell line provided by Invivogen, which enables the simultaneous investigation of signal transduction resulting in the activation of the NF-κB and/or the IRF pathway.
J774-Dual™ cells express secreted embryonic alkaline phosphatase (SEAP) under the control of the NF-κB pathway. SEAP is secreted into the cell culture supernatant. Thus, a semi-quantitative analysis of NF-κB activation is possible (Invivogen product information (“J774-Dual Cells|NF-κB & IRF/IFN Reporter Macrophage” n.d., 774)). p-Nitrophenyl phosphate (pNPP) is a widely utilized chromogenic chemical for rapid determination of alkaline phosphatase activity. In the presence of alkaline phosphatase the substance is hydrolyzed into phosphate and the yellow para-Nitrophenol which can be measured spectrophotometrically (Bessey, Otto A., O. H. Lowky, and Mary Jane Brock. “A method for the rapid determination of alkaline phosphatase with five cubic millimeters of serum.” Journal of Biological Chemistry 164 (1946): 321-329.).
Cells were seeded with a density of 1×10^5 cells per well into 96-well microplates and given 24 h for adherence. The culture medium was removed and the cells were incubated with either naked CpG nucleic acids, liposomes or liposome-nucleic acid complexes in serum-free medium at 37° C. with 5% CO2 and 95% humidified air (Heracell™ 150, Thermo Scientific). Liposome with a LC20>40 μM were included in the experimental series. After 48 h of incubation 100 μL supernatant of each sample were transferred into 96-well microplates (SpectraPlate™-96 TC, Perkin Elmer) and analyzed spectrophotometrically using a p-Nitrophenyl phosphate assay.
To this end, 100 μL pNPP working reagent consisting of 20 mM pNPP in 50 mM NaHCO3 buffer (pH 9.6) were added to each well containing samples, controls or calibration standards. After the incubation of the mixture at 37° C. for 1 h, absorbance was determined using Victor3™ V multimode plate reader (Perkin Elmer) equipped with a 405 nm absorbance filter. Lipopolysaccharide from Salmonella anterica serotype Minnesota was applied as calibration standard to determine the linear range of the assay and as positive control. All experiments were conducted in triplicate.
Raw data was normalized to 10 μg/mL protein content and the average value of the untreated control was subtracted.

Data set [2] concerns IRF pathway. Briefly: Interferon regulatory factor (IRF) pathway readout (Lucia luciferase, QUANTI-Luc) in J774-Dual reporter cell line. Type of data set: cell-based, murine. Conditions: ODN complexed with liposomes comprising DOTAP+DOPE, DOTMA+DOPE or DDA+DOPE; 40 μM liposomal lipids, 1.85 μg/mL ODN; J774-DUAL cells, 48 h. The procedure: as §1, §2
J774-DUAL™ cells were cultivated in a Heracell™ 150 incubator (Thermo Scientific) at 37° C. with 5% C02 and 95% humidified air. For seeding, cells were counted using a Neubauer bright line hemocytometer (Marienfeld) with a volume 0.1 mm^3. Cell lines were regularly checked for absence of mycoplasmic contamination. […]
J774-Dual™ cells also express the Lucia luciferase gene under the control of the IRF pathway. […] By using QUANTI-Luc™ reagent, a semi-quantitative analysis of IRF activation is thus possible (Invivogen product information (“J774-Dual Cells|NF-κB & IRF/IFN Reporter Macrophage” n.d., 774).
Cells were seeded with a density of 1×10^5 cells per well into 96-well microplates and given 24 h for adherence. […] After 48 h of incubations, 50 μL supernatant of each sample were transferred into 96-well microplates (OptiPlate™-96 HS, Perkin Elmer) and analyzed using QUANTI-Luc™ luminescence assay according to the manufacturer's instructions.
QUANTI-Luc™ reagent was dissolved in 25 mL endotoxin-free water, and 50 μL were added to each well containing samples, controls or calibration standards. Luminescence was immediately determined using EnSpire® multimode plate reader (Perkin Elmer) and measured as relative light units (RLU). […]

Take “ODN 1668: class B immunostimulatory CpG oligonucleotide, SEQ ID NO. 3 (DNA TCCATGACGTTCCTGATGCT; listed as DNA, chemistry not given here)”: the “activation of the NF-κB pathway (SEAP levels) compared to untreated J774-DUAL” value in data set [1] (FIG. 3, ODN complexed with liposomes, 40 μM liposomal lipids, 1.85 μg/mL ODN) was “increased NF-κB pathway activation”; in data set [1] (FIG. 3, uncomplexed (naked) ODN 1.85 μg/mL), “increased NF-κB pathway activation”. In addition, in data set [1] (FIG. 3, all liposome complexes except those with liposomes comprising DOTMA+DOPE, 40 μM lipids, 1.85 μg/mL ODN), the “immunostimulatory potency (NF-κB pathway) of complexes compared to the uncomplexed ODN” value is reported as “not significantly improved”. Further, the “activation of the IRF pathway (increase of luciferase levels in supernatant, normalized to protein content)” value in data set [2] is on record as “potent IRF pathway activation was observed”.
With “ODN 2395: class C immunostimulatory CpG oligonucleotide, SEQ ID NO. 1 (TCGTCGTTTTCGGCGCGCGCCG; listed as DNA, chemistry not given here)”, the “activation of the NF-κB pathway (increase of SEAP levels in supernatant, normalized to protein content)” value in data set [1] (40 μM liposomal lipids) was “potent NF-κB pathway activation was not observed”. The “activation of the IRF pathway (increase of luciferase levels in supernatant, normalized to protein content)” value in data set [2] was “potent IRF pathway activation was observed”.
Consider “ODN M362: class C immunostimulatory CpG oligonucleotide, SEQ ID NO. 2 (TCGTCGTCGTTCGAACGACGTTGAT; listed as DNA, chemistry not given here)”, for which the “activation of the NF-κB pathway (increase of SEAP levels in supernatant, normalized to protein content)” value in data set [1] (40 μM liposomal lipids) is reported as “potent NF-κB pathway activation was not observed”. In data set [2], the “activation of the IRF pathway (increase of luciferase levels in supernatant, normalized to protein content)” value is “potent IRF pathway activation was observed”.
